Assay results taken from patent US20230277602A1, “COMBINATION THERAPY FOR TREATING OR PREVENTING CANCER” (4D Pharma Research Limited, priority 2018, published 2023).

Test system: immature dendritic cells
Assay: Cytokine production in immature dendritic cells
Format: cell-based
Details: MRX518 10^7/ml, LPS 100 ng/ml, compared to the negative control, FIGS. 4a-d
Protocol: A monocyte population was isolated from peripheral blood mononuclear cells (PBMCs). The monocyte cells were subsequently differentiated into immature dendritic cells. The immature dendritic cells were plated out at 200,000 cells/well and incubated with MRX518 at a final concentration of 10^7/ml, with the optional addition of LPS at a final concentration of 100 ng/ml. The negative control involved incubating the cells with RPMI media alone and positive controls incubated the cells with LPS at a final concentration of 100 ng/ml. The cytokine content of the cells was then analysed.

lipopolysaccharide [LPS]
level of IL-6: increase | level of TNF-α: increase
